A short description of assay [1]: MIC against MRSA isolates. In kind it is cell-based, S. aureus. As to conditions: Staphylococcus aureus. As for the experimental part:
The MICs of S. aureus ATCC 33591, BAA-44, BAA-1707, BAA-1717, BAA-1720, BAA-1747, BAA-1754, BAA-1761, BAA-1763, BAA-1764, and BAA-1766 were measured using a cell concentration of about 5×10^5 colony forming units (CFU)/mL. In a 96-well microtiter plate, two-fold dilutions were made of each drug (starting with 100 μM) in 100 μL of a cell suspension in trypticase soy broth (TSB). The samples were incubated overnight at 37° C. on a rotary shaking incubator set at 100 revolutions per minute (rpm) and were visually inspected for turbidity. A 20% well-volume of 3-(4,5-dimethylthiazol-2-yl)-2,5-diphenyltetrazolium bromide (MTT reagent, 5 mg/mL) was added, and the samples were incubated for about 20 minutes. The MICs were determined as the lowest concentration at which full visual inhibition was observed by the unaided eye.

Assay [2] relates to MRSA (ATCC No. BAA-44; ATCC No. BAA-1717). Nature of the assay: Light-activated killing (photodynamic therapy), colony counts. Type of assay: cell-based, S. aureus. As to conditions: for Dark Toxicity: no light; for Light Toxicity: white light 2 minutes; for log reduction in the concentration of CFUs: MRSA, FIG. 7. As for the experimental part: Bacterial media was inoculated with bacteria and incubated overnight. The bacterial cultures were diluted to 5×10^8 CFU/mL using a McFarland latex turbidity standard (0.5). Compound 1 was diluted with sterile DMSO, which was added to the cell suspension in a glass culture tube. The cells were then incubated for 30 minutes at 37° C. on a rotary shaking incubator at 150 rpm. 500 μL of the treated cell suspension was added to a well on a sterile ceramic drop plate. Non-coherent white light from a Lumacare™ LC-122 unit was used to irradiate the samples. The end of the light probe was placed 3 cm above the sample well, perpendicular to the surface of the sample, and light was applied for 2 minutes (15 seconds light, 15 seconds dark). 200 μL of the irradiated sample was transferred to a 96-well plastic microtiter plate, and five ten-fold dilutions were made in the media. 10 μL of each dilution was dripped onto an agar media plate and streaked down the plate by tilting the plate down. The agar plates were incubated at 37° C. overnight, and colony counts were performed to calculate the CFU/mL.
Dose-dependent effects of treating bacteria with compound 1 and irradiation with white light were assessed by treating 10^8 CFU/mL of cells with compound 1, followed by irradiation with white light for 2 minutes. Compound 1 was added at a specific concentration to 1 mL of a 10^8 CFU/mL suspension of the respective bacterial cells, and the cells were incubated at 37° C. for approximately 45 minutes on a rotary shaker at 150 rpm. 0.5 mL of the cell suspension was removed and placed into the wells of a sterile ceramic drop plate, and then the cells were irradiated with white light from a Lumacare™ LC 122A light source for 2 minutes at a distance of approximately 3 cm. The time and distance of the light application delivered about 85 J/cm^2 of 400-700 nm light to the sample. After being irradiated, ten-fold dilutions were made of each cell sample. The dilutions were drip-streaked onto a tryptic soy agar (TSA) plate and incubated at 37° C. for 18-24 hours. Enumeration of bacteria was determined from the dilution, which produced a drip-streak containing approximately 30-300 colonies. After counting the colonies, the CFU/mL was calculated by applying the respective dilution factor and a factor of 100 to account for the 10 μL of sample taken. Appropriate controls were prepared, including cells with no treatment, cells with only compound 1 added, and cells only treated with light.

The test system of assay [3] is VRE. The assay can be described thus: MIC against VRE. In kind it is cell-based, Enterococcus faecalis. To be noted: Enterococcus, TABLE 23, read-out: VRE MIC. As for the experimental part: In a 12×75 mm borosilicate glass culture tube, 1 mL of cell suspension was added. Then, compound 7 was added to the cells, and the samples were mixed using a vortex mixer. […] The samples were incubated overnight at 37° C. on a rotary shaking incubator at 100 rpm.

Assay [4] concerns CRE. Nature of the assay: Resensitization to antibiotics (log reduction, TABLE 29). Type of assay: cell-based. As for the experimental part: In a 96-well microtiter plate, two-fold dilutions were made of each drug (starting with 100 μM) in 100 μL of a cell suspension in TSB. The resulting samples were incubated overnight at 37° C. on a rotary shaking incubator at 100 rpm. The samples were then visually inspected for turbidity. A 20% well volume of MTT reagent (5 mg/mL) was subsequently added, and the samples were incubated for about 20 minutes.

The test system of assay [5] is P. aeruginosa. The assay is described as above. In kind it is cell-based. As to conditions: compound 20 μM.
In assay [6] the test system is Klebsiella pneumoniae (CRE, ATCC BAA-1705). Nature of the assay: Time-dependent colony counts of CRE with compounds and PME. In kind it is cell-based. As to conditions: PME 0.2 μg/mL, compound 20 μM; FIGS. 48, 49. As for the experimental part:
The MICs of PME and compounds 8-11 were determined against Klebsiella pneumoniae (CRE, ATCC BAA-1705). […] […] At specific time points, the samples were taken and diluted ten-fold in media. Ten microliters of each dilution was then drip-streaked onto an agar plate and incubated overnight at 37° C. Colony counts were then performed and the CFU/mL were calculated.

The mark [7] stands for this setting: MRSA (ATCC BAA-44), TABLE 21, read-out: MRSA MIC.
The mark [8] stands for this setting: MRSA isolate ATCC BAA-44, read-out: MIC.

Consider two compounds from patent US9834514B2, “Antibiotic sensitivity-restoring and photosensitive agents” (New Mexico Tech Research Foundation, priority 2015, dated 2017).

The term MIC denotes the smallest concentration in the dilution series that meets the test's criterion for growth inhibition.

Converted amounts (≈) assume the structure as drawn. Read-outs that look alike come from different tables or passages of the source. Where only a bound is given, the exact number is not on record here.

In the case of `Clc1ccc(/C=C/c2[nH]c3ccccc3c2/C=C/c2ccc(Cl)cc2)cc1` [Compound 1], the MIC in assay [1] (setting [7]) was 400 µM (≈ 156 µg/mL); in assay [1] (setting [8]) it was 400 µM (≈ 156 µg/mL); in assay [3], greater than 200 µM. Moreover, the “Dark Toxicity” value in assay [2] (MRSA ATCC BAA-44, 0.1 μM) is recorded as 2.85 × 10^8 ± 8.05 × 10^7 CFU/mL; in assay [2] (MRSA ATCC BAA-44, 0.5 μM), 2.93 × 10^8 ± 2.14 × 10^7 CFU/mL; in assay [2] (MRSA ATCC BAA-44, 1.0 μM), 1.05 × 10^8 ± 9.07 × 10^6 CFU/mL; in assay [2] (MRSA ATCC BAA-44, 5.1 μM), 4.34 × 10^5 ± 5.04 × 10^5 CFU/mL; in assay [2] (MRSA ATCC BAA-1717, 0.1 μM), 5.10 × 10^7 ± 5.29 × 10^6 CFU/mL; in assay [2] (MRSA ATCC BAA-1717, 0.5 μM), 4.03 × 10^6 ± 1.5 × 10^6 CFU/mL. The “Dark Toxicity” value in assay [2] (MRSA ATCC BAA-1717, 1.0 μM) is recorded as 1.06 × 10^6 ± 8.39 × 10^4 CFU/mL; in assay [2] (MRSA ATCC BAA-1717, 5.1 μM), 7.53 × 10^5 ± 1.12 × 10^5 CFU/mL. Also, the “Light Toxicity” value in assay [2] (MRSA ATCC BAA-44, 0.1 μM) is given as 2.00 × 10^3 ± 4.00 × 10^2 CFU/mL; in assay [2] (MRSA ATCC BAA-44, 0.5 μM) it was 3.33 × 10^1 ± 5.77 × 10^1 CFU/mL; in assay [2] (MRSA ATCC BAA-44, 1.0 μM) it was “None detected (<100 CFU/mL)”; in assay [2] (MRSA ATCC BAA-44, 5.1 μM) it was “None detected (<100 CFU/mL)”; in assay [2] (MRSA ATCC BAA-1717, 0.1 μM) it was 4.43 × 10^3 ± 1.33 × 10^3 CFU/mL; in assay [2] (MRSA ATCC BAA-1717, 0.5 μM), 4.0 × 10^2 ± 3.61 × 10^2 CFU/mL. Further, the “Light Toxicity” value in assay [2] (MRSA ATCC BAA-1717, 1.0 μM) is “None detected (<100 CFU/mL)”; in assay [2] (MRSA ATCC BAA-1717, 5.1 μM), “None detected (<100 CFU/mL)”. Besides, the “log reduction in the concentration of CFUs” value turned out to be 1 log in assay [2] (1 μM) and 3 log in assay [2] (5 μM). Also, the PDT in assay [2] (TABLE 6) is reported as <1-log reduction. Besides, in assay [2] (from 100,000,000 viable MRSA cells, 2 minutes of white light irradiation), the “viable MRSA cells after photodynamic therapy” value is 0. In addition, the “Log Reduction” value in assay [4] (compound 5 μM, PMB (0.2 μg/mL) + Light (2 min)) is given as 3; in assay [4] (compound 10 μM, PME (0.1 μg/mL)), 9; in assay [4] (compound 10 μM, PME (0.2 μg/mL) + Light (2 min)), 9; in assay [5] (PME (0.1 μg/mL)) it was 2; in assay [5] (PME (0.1 μg/mL) + Light (2 min)), 8.

`Brc1ccc(/N=N/c2c[nH]c3ccccc23)cc1` [Compound 8]: the MIC in assay [1] (setting [7]) is 15 µM (≈ 4.5 µg/mL); in assay [1] (MRSA isolate ATCC 33591, read-out: MIC), 3.1 to 6.3 µM (≈ 0.93 to 1.89 µg/mL); in assay [1] (setting [8]), 15 µM (≈ 4.5 µg/mL); in assay [1] (MRSA isolate ATCC BAA-1707, read-out: MIC), 6.3 µM (≈ 1.89 µg/mL); in assay [1] (MRSA isolate ATCC BAA-1717, read-out: MIC), 6.3 µM (≈ 1.89 µg/mL); in assay [1] (MRSA isolate ATCC BAA-1720, read-out: MIC) it was 6.3 µM (≈ 1.89 µg/mL). Moreover, the MIC in assay [1] (MRSA isolate ATCC BAA-1747, read-out: MIC) was determined as 6.3 µM (≈ 1.89 µg/mL); in assay [1] (MRSA isolate ATCC BAA-1754, read-out: MIC), 12.5 µM (≈ 3.75 µg/mL); in assay [1] (MRSA isolate ATCC BAA-1761, read-out: MIC) it was 12.5 µM (≈ 3.75 µg/mL); in assay [1] (MRSA isolate ATCC BAA-1763, read-out: MIC) it was 6.3 µM (≈ 1.89 µg/mL); in assay [1] (MRSA isolate ATCC BAA-1764, read-out: MIC) it was 12.5 µM (≈ 3.75 µg/mL); in assay [1] (MRSA isolate ATCC BAA-1766, read-out: MIC) it was 12.5 µM (≈ 3.75 µg/mL). For the same compound, the MIC in assay [3] stood at 2 µM (≈ 0.6 µg/mL). For the same compound, the “CRE colony populations on simultaneous treatment with PME” value in assay [6] is “reduced the CRE colony populations to sterility”. Moreover, the “Log Reduction” value in assay [4] (compound 20 μM, PMB (0.2 μg/mL)) is recorded as 6; in assay [4] (compound 20 μM, PME (0.2 μg/mL)), 6; in assay [5] (PME (0.1 μg/mL)) it was 4.
